Molecular target: human PDE1B enzyme (Homo sapiens (Human), UniProt Q01064)
Assay: IMAP TR-FRET PDE1B enzymatic assay
Assay type: biochemical
Settings: negative log of half-maximal molar inhibitory concentration, 200 nM FAM-cAMP, values given as bins; for IC50: read-out: PDE1b (pIC50) (converted)
Procedure, shortened: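 Full-length GST-tagged human PDE1B (250 pg/well) in IMAP BSA buffer with 10 U/ml calmodulin and 2.5 mM CaCl2; compound pre-incubated 5 min at room temperature, then 200 nM (final) FAM-cAMP for 30 min. IMAP binding reagent/Tb added, 1 h; TR-FRET 520/490 ratio read. IC50 from sigmoidal dose-response fit.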

SMILES | IC50 [nM] | PDE1b (pIC50)
COC(=O)c1cnc(C2CN(C(=O)c3c(C)oc4ncnc(NC5(C)CC5)c34)C2)nc1 [Example 462, Methyl 2-(1-{6-methyl-4-[(1-methylcyclopropyl)amino]furo[2,3-d]pyrimidine-5-carbonyl}azetidin-3-yl)pyrimidine-5-carboxylate] | 100 to 1000 | 
Cc1oc2ncnc(NC3(C)CC3)c2c1C(=O)NCc1nnc2ccc(C(F)(F)F)cn12 [Example 463, 6-Methyl-4-[(1-methylcyclopropyl)amino]-N-{[6-(trifluoromethyl)-[1,2,4]triazolo[4,3-a]pyridin-3-yl]methyl}furo[2,3-d]pyrimidine-5-carboxamide] | 10 to 100 | 
Cc1oc2ncnc(NC3(C)CC3)c2c1C(=O)NCc1noc(C2CC2)n1 [Example 464, N-[(5-Cyclopropyl-1,2,4-oxadiazol-3-yl)methyl]-6-methyl-4-[(1-methylcyclopropyl)amino]furo[2,3-d]pyrimidine-5-carboxamide] |  | >8
Cc1oc2ncnc(NC3(C)CC3)c2c1C(=O)N1CCc2c(ncnc2OC(C)C)C1 [Example 465, 6-Methyl-N-(1-methylcyclopropyl)-5-[4-(propan-2-yloxy)-5H,6H,7H,8H-pyrido[3,4-d]pyrimidine-7-carbonyl]furo[2,3-d]pyrimidin-4-amine] | 10 to 100 | 
Cc1ccnc(CNC(=O)c2c(C)oc3ncnc(NC4(C)CC4)c23)c1 [Example 466, 6-Methyl-4-[(1-methylcyclopropyl)amino]-N-[(4-methylpyridin-2-yl)methyl]furo[2,3-d]pyrimidine-5-carboxamide] | 10 to 100 | 
Cc1cnc(CNC(=O)c2c(C)oc3ncnc(NC4(C)CC4)c23)s1 [Example 467, 6-Methyl-N-[(5-methyl-1,3-thiazol-2-yl)methyl]-4-[(1-methylcyclopropyl)amino]furo[2,3-d]pyrimidine-5-carboxamide] |  | >8
Cc1nnc(CNC(=O)c2c(C)oc3ncnc(NC4(C)CC4)c23)s1 [Example 468, 6-Methyl-N-[(5-methyl-1,3,4-thiadiazol-2-yl)methyl]-4-[(1-methylcyclopropyl)amino]furo[2,3-d]pyrimidine-5-carboxamide] | 10 to 100 | 
Cc1oc2ncnc(NC3(C)CC3)c2c1C(=O)N(C)c1cnn(C)c1 [Example 469, N,6-Dimethyl-N-(1-methyl-1H-pyrazol-4-yl)-4-[(1-methylcyclopropyl)amino]furo[2,3-d]pyrimidine-5-carboxamide] | 100 to 1000 | 
Cc1oc2ncnc(NC3(C)CC3)c2c1C(=O)N(C)c1cnn(C(C)C)c1 [Example 470, N,6-Dimethyl-4-[(1-methylcyclopropyl)amino]-N-[1-(propan-2-yl)-1H-pyrazol-4-yl]furo[2,3-d]pyrimidine-5-carboxamide] | 100 to 1000 | 
Cc1oc2ncnc(NC3(C)CC3)c2c1C(=O)N1CCc2cncnc2C1 [Example 471, 6-Methyl-N-(1-methylcyclopropyl)-5-f{5H,6H,7H,8H-pyrido[3,4-d]pyrimidine-7-carbonyl}furo[2,3-d]pyrimidin-4-amine] | 10 to 100 | 
Cc1oc2ncnc(NC3(C)CC3)c2c1C(=O)Nc1cnn(Cc2ccccn2)c1 [Example 472, 6-Methyl-4-[(1-methylcyclopropyl)amino]-N-[1-(pyridin-2-ylmethyl)-1H-pyrazol-4-yl]furo[2,3-d]pyrimidine-5-carboxamide] | 10 to 100 | 
Cc1oc2ncnc(NC3(C)CC3)c2c1C(=O)Nc1cnn(-c2ncccn2)c1 [Example 473, 6-Methyl-4-[(1-methylcyclopropyl)amino]-N-[1-(pyrimidin-2-yl)-1H-pyrazol-4-yl]furo[2,3-d]pyrimidine-5-carboxamide] | 10 to 100 | 
CCC(NC(=O)c1c(C)oc2ncnc(NC3(C)CC3)c12)c1ccc(OC)cc1 (stereo not shown) [Example 475, N-[1-(4-Methoxyphenyl)propyl]-6-methyl-4-[(1-methylcyclopropyl)amino]furo[2,3-d]pyrimidine-5-carboxamide] |  | >8

Source: patent US20250145633A1, “SUBSTITUTED FURANOPYRIMIDINE COMPOUNDS AS PDE1 INHIBITORS” (Dart NeuroScience, LLC, priority 2017, published 2025)
